Legend:
Cyclooxygenase-2 (COX-2) [1] = target: T1, Cyclooxygenase-2 (COX-2) (Ovis aries, UniProt P79208); experiment: purified enzyme, product formation and regioisomers by RP-HPLC-MS/MS; type: biochemical
T1 sequence (P79208 17-603): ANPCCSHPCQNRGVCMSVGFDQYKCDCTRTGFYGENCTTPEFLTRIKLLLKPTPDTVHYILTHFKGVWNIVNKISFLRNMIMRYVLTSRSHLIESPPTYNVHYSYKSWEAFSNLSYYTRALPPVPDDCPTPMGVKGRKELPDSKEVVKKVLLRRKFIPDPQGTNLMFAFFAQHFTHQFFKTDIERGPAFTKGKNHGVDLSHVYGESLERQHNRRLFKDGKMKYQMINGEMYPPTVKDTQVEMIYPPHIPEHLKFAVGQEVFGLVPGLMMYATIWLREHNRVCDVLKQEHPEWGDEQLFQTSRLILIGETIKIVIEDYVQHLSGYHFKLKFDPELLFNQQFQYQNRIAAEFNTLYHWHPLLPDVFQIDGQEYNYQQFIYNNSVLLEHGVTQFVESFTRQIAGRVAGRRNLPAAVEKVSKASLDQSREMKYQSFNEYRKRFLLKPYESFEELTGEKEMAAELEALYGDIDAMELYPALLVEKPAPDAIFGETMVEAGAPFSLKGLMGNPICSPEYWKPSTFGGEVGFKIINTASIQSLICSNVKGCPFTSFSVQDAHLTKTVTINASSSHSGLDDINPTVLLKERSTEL

Cyclooxygenase-2 (COX-2) [2] = target: T1, Cyclooxygenase-2 (COX-2); experiment: purified enzyme turnover, RP-HPLC-MS/MS; type: biochemical

| SMILES | purified enzyme, product formation and regioisomers by RP-HPLC-MS/MS (Cyclooxygenase-2 (COX-2) [1]) | purified enzyme turnover, RP-HPLC-MS/MS (Cyclooxygenase-2 (COX-2) [2]) |
| --- | --- | --- |
| CC(=O)Oc1ccccc1C(=O)O [ASA] | ASA increased the rate and extent of formation of OH-DPA (Fig. 3c) and shifted the distribution of hydroxy regioisomers |  |
| CC/C=C\C/C=C\C/C=C\C/C=C\C/C=C\CCCCCC(=O)O [DPA, (7Z,10Z,13Z,16Z,19Z)-docosapentaenoic acid] |  | purified ovine COX-2 generated the EFOX-D5 precursor, hydroxy-DPA (OH-DPA), from DPA |
